In patent US20120070392A1, “COMPOSITION FOR INHIBITING ERYTHEMA CAUSED BY ULTRAVIOLET RADIATION CONTAINING A DIPEPTIDE AS ACTIVE INGREDIENT” (priority 2009, published 2012):

System: PGE2 production
Test: Inhibition of UVB-induced PGE2 production in cultured human keratinocytes (PGE2 assay kit, calibrated with MTT absorbance)
Assay type: cell-based
Details: not given
Method: Human keratinocytes were seeded at a density of 1×10^5 cells/well to 6-well plates containing 2 mL of KGM(keratinocyte growth medium, Clonetics, San Diego, Calif., USA) per well and cultured overnight. Then, the medium was replaced with KBM(keratinocyte basal medium) supplemented with 0.1% BSA(bovine serum albumin) and the cells were cultured for an additional 24 hours. Subsequently, the cells were pre-treated for an additional 24 hours with 2 mL of the same medium containing 10 μg/ml of each of the dipeptides listed in Table 1. […] The pre-treated medium was transferred to new 24 well plates and 1 mL of DPBS(Dulbecco's phosphate buffered saline) was added to the cells in each well. During UV irradiation, the transferred medium was stored in a cell incubator. […] At this time, the control was covered with aluminum foil. After the removal of DPBS, the transferred medium was returned to each well. The cells were further cultured for 24 hours, after which 1 mL of the medium was transferred to microcentrifuge tubes. […] The supernatants were then removed and the formazan crystals were solubilized in 1 ml of DMSO(dimethylsulfoxide). One hundred μL of the solution was transferred to each well of 96-well plates and an optical density was determined at 540 nm using an ELISA(enzyme-linked immunosorbent assay) reader. […] The concentration of PGE2 was determined using a PGE2 Assay Kit(KGE004, R&D Systems, Inc., Minneapolis, Minn., USA) according to the manufacturer's instruction. […] After removal of the reaction, the wells were washed five times with 400 μL of wash buffer. To each well was added 200 μL of a substrate solution, followed by incubation for 20 30 min. The reaction was terminated with 50 μL of a stop solution per well before determining absorbance at 450 nm on an ELISA reader. The PGE2 concentration of each sample was calculated from the standard graph and calibrated with the absorbance obtained in the MTT assay to determine their inhibitory activity against PGE2 production.

Row | Compound | % Inhibition against PGE2 Production
1 | valine-valine [VV] | 89.9%
2 | proline-asparagine [PN] | 32.7%
3 | asparagine-proline [NP] | 70.6%
4 | lysine-tyrosine [KY] | 72.6%
5 | tryptophan-methionine [WM] | 50.6%
6 | asparagine-threonine [NT] | 57.2%
7 | tyrosine-isoleucine [YI] | 44.3%
8 | methionine-glutamine [MQ] | 87.5%
9 | methionine-arginine [MR] | 36.5%
10 | serine-histidine [SH] | 51.5%
11 | valine-tyrosine [VY] | 83.2%
12 | cysteine-methionine [CM] | 69.7%
13 | aspartic acid-histidine [DH] | 59.2%
14 | tyrosine-threonine [YT] | 91.5%
15 | NCC(=O)O.N[C@@H](CC(=O)O)C(=O)O [DG, aspartic acid-glycine] | 79.7%
16 | serine-proline [SP] | 94.7%
17 | NCC(=O)O.N[C@@H](CCC(=O)O)C(=O)O [EG, glutamic acid-glycine] | 90.9%
18 | alanine-valine [AV] | 44.8%
19 | proline-isoleucine [PI] | 87.2%
20 | lysine-methionine [KM] | 84.0%
21 | cysteine-asparagine [CN] | 92.0%
22 | arginine-methionine [RM] | 84.7%

Row | Compound | % Inhibition against PGE2 Production
23 | tyrosine-lysine [YK] | 89.9%
24 | proline-serine [PS] | 71.3%
25 | glutamic acid-histidine [EH] | 75.4%
26 | alanine-asparagine | 58.8%
27 | glutamic acid-proline [EP] | 80.8%
28 | leucine-histidine [LH] | 81.7%
29 | NCC(=O)O.O=C(O)[C@@H]1CCCN1 [PG, proline-glycine] | 80.7%
30 | tyrosine-aspartic acid [YD] | 88.0%
31 | proline-glutamine [PQ] | 78.1%
32 | asparagine-methionine [NM] | 89.5%
33 | asparagine-cysteine [NC] | 83.1%
34 | valine-lysine [VK] | 42.0%
35 | methionine-tryptophan [MW] | 76.4%
36 | isoleucine-histidine [IH] | 27.1%
37 | threonine-methionine [TM] | 67.9%
38 | isoleucine-proline [IP] | 59.5%
39 | glutamine-histidine [QH] | 14.8%
40 | histidine-leucine [HL] | 36.3%
41 | alanine-proline [AP] | 26.3%
42 | tyrosine-arginine | 83.7%
43 | proline-lysine [PK] | 96.3%

Same assay, conditions: 10 μg/ml dipeptide, 24 h pre-treatment, human keratinocytes, UVB 100 mJ/cm^2, medium assayed 24 h after irradiation; 0% or lower expressed as zero; 10% or more regarded as effective

Row | Compound | % Inhibition against PGE2 Production
44 | NCC(=O)O.N[C@@H](Cc1c[nH]c2ccccc12)C(=O)O [WG, tryptophan-glycine] | 91.3%
45 | phenylalanine-alanine [FA] | 48.8%
46 | alanine-alanine [AA] | 78.4%
47 | valine-alanine | 64.7%
48 | glycine-alanine [GA] | 17.6%
49 | isoleucine-alanine [IA] | 38.6%
50 | histidine-phenylalanine [HF] | 43.2%

Same assay, conditions: 10 μg/ml dipeptide, 24 h pre-treatment, human keratinocytes, UVB 100 mJ/cm^2, medium assayed 24 h after irradiation; […]; 10% or more regarded as effective

Row | Compound | % Inhibition against PGE2 Production
51 | arginine-serine [RS] | 50.3%
52 | aspartic acid-cysteine [DC] | 77.6%
53 | tryptophan-tyrosine [WY] | 55.6%
54 | isoleucine-valine [IV] | 70.9%
55 | glutamic acid-glutamic acid [EE] | 86.5%
56 | serine-lysine [SK] | 44.9%
57 | valine-aspartic acid [VD] | 45.3%
58 | aspartic acid-glutamic acid [DE] | 58.5%
59 | aspartic acid-glutamine [DQ] | 52.4%
60 | threonine-lysine [TK] | 39.0%
61 | tryptophan-cysteine [WC] | 18.3%
62 | alanine-lysine [AK] | 90.3%
63 | serine-serine [SS] | 93.8%
64 | aspartic acid-lysine [DK] | 76.6%
65 | arginine-threonine [RT] | 27.5%
66 | arginine-arginine [RR] | 90.5%
67 | isoleucine-glutamine [IQ] | 72.0%
68 | lysine-cysteine [KC] | 20.2%
69 | alanine-glutamine [AQ] | 69.0%
70 | phenylalanine-tryptophan [FW] | 92.9%

Row | Compound | % Inhibition against PGE2 Production
71 | glutamine-glutamine [QQ] | 92.5%
72 | tryptophan-tryptophan [WW] | 34.8%
73 | arginine-asparagine [RN] | 10.7%
74 | glutamine-lysine [QK] | 25.9%
75 | aspartic acid-phenylalanine [DF] | 83.4%
76 | cysteine-glutamic acid [CE] | 54.4%
77 | leucine-lysine [LK] | 82.8%
78 | glutamic acid-isoleucine [EI] | 74.0%
79 | threonine-arginine [TR] | 53.0%
80 | aspartic acid-aspartic acid [DD] | 64.2%
81 | alanine-glutamic acid [AE] | 74.6%
82 | threonine-glutamine [TQ] | 51.2%
83 | isoleucine-threonine [IT] | 18.9%
84 | aspartic acid-serine [DS] | 84.0%
85 | tryptophan-arginine [WR] | 83.7%
86 | isoleucine-aspartic acid | 64.6%
87 | phenylalanine-isoleucine [FI] | 45.8%
88 | arginine-glutamic acid [RE] | 58.8%
89 | lysine-aspartic acid [KD] | 90.3%
90 | serine-aspartic acid [SD] | 58.4%

Row | Compound | % Inhibition against PGE2 Production
91 | glutamic acid-threonine [ET] | 67.9%
92 | tryptophan-glutamic acid [WE] | 79.9%
93 | serine-arginine [SR] | 52.9%
94 | alanine-aspartic acid [AD] | 58.3%
95 | glutamine-valine [QV] | 59.7%
96 | arginine-aspartic acid [RD] | 24.1%
97 | tryptophan-leucine [WL] | 90.2%
98 | alanine-phenylalanine [AF] | 84.2%
99 | tryptophan-histidine [WH] | 96.1%
100 | leucine-asparagine [LN] | 78.8%
101 | asparagine-arginine [NR] | 72.8%
102 | glutamic acid-aspartic acid [ED] | 85.1%
103 | threonine-phenylalanine [TF] | 77.3%
104 | glutamic acid-arginine [ER] | 72.8%
105 | tryptophan-lysine [WK] | 78.3%
106 | arginine-leucine [RL] | 30.4%
107 | alanine-cysteine [AC] | 70.8%
108 | valine-glutamine [VQ] | 71.2%
109 | valine-leucine [VL] | 47.0%
110 | glutamine-arginine [QR] | 33.6%
